Laboratory results: publication PMC10525927, “First Generation of Antioxidant Precursors for Bioisosteric Se-NSAIDs: Design, Synthesis, and In Vitro and In Vivo Anticancer Evaluation” (Antioxidants, 2023)

Assays:
[1] = test system: DU-145 prostate cancer cells; experiment: MTT cell viability assay, DU-145; assay type: cell-based; details: mean ± SD
Method: (§1) The cell lines were purchased from the American Type Culture Collection (ATCC). The cancer cell lines DU-145, PC-3, T-47D, MDA-MB-231, H1299, and A549, and the non-tumorigenic cells (184B5 and BEAS-2B), were maintained in RPMI 1640 medium (Gibco, Alcobendas, Madrid, Spain) supplemented with 10% fetal bovine serum (FBS; Gibco) and 1% antibiotics (10.00 units/mL penicillin and 10.00 mg/mL streptomycin; Gibco). Colon cancer cells HT-29 and HCT-116 were cultured in McCoy’s 5A medium (Gibco) supplemented with 10% fetal bovine serum (FBS; Gibco) and 1% antibiotics (10.00 units/mL penicillin and 10.00 mg/mL streptomycin; Gibco). Cells were maintained in tissue culture flasks at 37 °C and 5% CO2. The culture medium was replaced every three days.
(§2) The antiproliferative activity and selectivity in vitro of the Se-NSAID derivatives were determined by the (3-(4,5-dimethylthiazol-2-yl)-2,5-diphenyltetrazolium bromide) (MTT) assay. Compounds were dissolved in DMSO at a concentration of 0.01 M and serial dilutions were prepared. The Se-NSAID derivatives were tested at seven concentrations ranging between 1 and 100 µM in the colon (HT-29 and HCT-116), prostate (DU-145 and PC-3), breast (MDA-MB-231 and T-47D), and lung (H1299 and A549) cancer cell lines. The non-tumorigenic breast (184B5) and lung (BEAS-2B) cell lines were also tested to assess the selectivity of the compounds following the same procedure. A total of 1 × 10^4 cells were seeded per well in 96-well plates and incubated at 5% CO2 and 37 °C for 24 h. Then, cells were treated with either DMSO or increasing concentrations of the corresponding Se-NSAID derivatives for 48 h. A volume of 20 µL of MTT (5 mg/mL) was added to each well 2.5 h before the termination point. At the end of the experiment, the medium was removed, and the resultant formazan crystals formed by mitochondrial reduction of MTT were dissolved in 50 µL of DMSO. Absorbance was measured at 550 nm. IC50, GI50, TGI, and LC50 values were calculated using OriginPro version 8.5.1. software by nonlinear curve fitting. Selectivity indexes (SI) were calculated as the ratio of the IC50 values determined for the nonmalignant and the tumoral cells in the breast (IC50 (184B5)/IC50 (MDA-MB-231) and IC50 (184B5)/IC50 (T-47D)) and lung (IC50 (BEAS-2B)/IC50 (H1299) and IC50 (BEAS-2B)/IC50 (A549)) cell lines. Data were obtained from at least three independent experiments performed in triplicates.

[2] = test system: PC-3 prostate cancer cells; experiment: MTT cell viability assay, PC-3; assay type: cell-based; details: 48 h, mean ± SD
Method: as §1, §2

H1299 lung cancer cells = experiment: MTT cell viability assay, H1299; assay type: cell-based; details: mean ± SD
Method: as §1, §2

In vivo toxicity study = experiment: In vivo toxicity study; parameters: species or system mice; details: 7.5 mg/Kg IP thrice weekly, 27 days
Method: (§3) Female mice of 4–5 weeks of age (The Jackson Laboratory, Bar Harbor, ME, USA) were kept on the daily cycle of 12 h light/dark and received food and water ad libitum throughout the studies. All animal procedures were performed following the National Institutes of Health (NIH) Guide for the Care and Use of Laboratory Animals and protocols were approved by the Animal Care and Use Committee of the Penn State College of Medicine.
Mice were treated either with intraperitoneal doses of 7.5 mg/Kg of compound 5 or with DMSO (vehicle) thrice weekly and kept under observation for 27 days. Body weight, behavior, and food and water intake were monitored every alternate day. At the end of the study, animals were sacrificed by euthanizing the animals by CO2 asphyxiation. The blood serum was withdrawn and subjected to the biochemical analysis of creatinine (mg/dL), AST(SGOT) (U/L), ALT(SGPT) (U/L), Alk. Phos (U/L), and BUN (mg/dL).

[3] = test system: HCT-116 colon cancer xenograft; experiment: Tumor growth inhibition on HCT-116 colon cancer xenograft model; assay type: in vivo; details: 10 mg/Kg IP
Method: as §3
All mice were housed in quarantine for one week prior to the inoculation of the cancer cells. Female nude mice (4–5 weeks old) were subcutaneously injected (100 µL of PBS/flank) with 2.5 × 10^6 HCT-116 colon cancer cells in each flank. Two weeks after inoculation, mice were sorted randomly into treatment and control groups (five mice/group) such that the mean tumor volumes were similar between groups. […] Mice that were injected with only DMSO (vehicle) were used as negative controls. The body weight of animals and the tumor volume were monitored thrice weekly. Tumor volumes were calculated using the formula (L × W^2)/2, wherein L and W are the length and width of the tumor mass measured with a vernier caliper, respectively. At the end of the experiment, mice were sacrificed by euthanizing the animals by CO2 asphyxiation, and the tumors were excised and weighed. Inspection of major morphological changes in organs was also carried out. The antitumor effect was assessed by the tumor growth inhibition (TGI) and the relative increment ratio (T/C) parameters in the aspects of tumor volume and tumor weight, respectively. The TGI was calculated using the following formula: TGI (%) = [1 − (T − T0)/(C − C0)] × 100, wherein T and C are the final tumor volumes measured at the end of the treatment of compound-treated mice and vehicle-treated mice, respectively, whereas T0 and C0 are the tumor volumes measured at the beginning of the treatment of compound-treated mice and vehicle-treated mice, respectively. The T/C value was calculated as WT/WC × 100, wherein WT is the mean of tumor weight of the compound-treated mice, and WC is the mean of tumor weight of the vehicle-treated mice.

[4] = in vitro TGI concentration, 48 h, Table S1

With `CC(C)Cc1ccc(C(C)C(=O)[Se][Se]C(=O)C(C)c2ccc(CC(C)C)cc2)cc1` (stereo not shown) [Compound 5, 2-(4-Isobutylphenyl)propanoic diselenoperoxyanhydride] the “LD50 DU-145” value ([1]; 48 h, Table S1) was 9.0 ± 0.4 µM, the IC50 ([1]; Homo sapiens, DU-145, 48 h) was 7 ± 1.3 µM and the GI50 ([1]; Homo sapiens, DU-145, 48 h, Table S1) was 6 ± 1.3 µM. The “TGI DU-145” value [1, 4] was 7.3 ± 0.9 µM, the IC50 [2] was 7.4 ± 0.5 µM and the GI50 ([2]; Table S1) was 4.7 ± 0.2 µM. For the same compound, the “LD50 PC-3” value ([2]; Table S1) was 8.9 ± 1.9 µM, the “TGI PC-3” value ([2]; in vitro TGI concentration, Table S1) was 6.1 ± 0.5 µM and the “LD50 H1299” value (H1299 lung cancer cells; 48 h, Table S1) was 16.5 ± 5.1 µM. For the same compound, the IC50 (H1299 lung cancer cells; Homo sapiens, NCI-H1299, 48 h) was 9.3 ± 0.6 µM, the GI50 (H1299 lung cancer cells; Homo sapiens, NCI-H1299, 48 h, Table S1) was 8.1 ± 1 µM and the “TGI H1299” value (H1299 lung cancer cells; [4]) was 10.2 ± 1.0 µM. For the same compound, the “blood serum biochemistry (creatinine, AST, ALT, Alk. Phos, BUN) vs vehicle” value (In vivo toxicity study; female nude mice, endpoint) was “no significant changes”, the “behavior and food/water uptake” value (In vivo toxicity study; mice) was “no changes” and the “body weight during treatment” value (In vivo toxicity study; mice) was “no appreciable variations”. For the same compound, the “TGI (tumor growth inhibition, tumor volume)” value ([3]; HCT-116 subcutaneous xenograft, female nude mice, 23 days of treatment, day 38, vs vehicle) was 72%, the “T/C (relative increment ratio, tumor weight)” value ([3]; HCT-116 subcutaneous xenograft, female nude mice, end of treatment) was 38% and the “body weight of the mice vs vehicle during treatment” value ([3]; HCT-116 xenograft mice) was “slight change”. The “toxicity signs (morphological abnormalities in major organs)” value ([3]; HCT-116 xenograft mice, end of experiment) was “no evident toxicity signs”.
